According to PMC8546428, “Convergent olfactory trace amine-associated receptors detect biogenic polyamines with distinct motifs via a conserved binding site” (The Journal of Biological Chemistry, 2021):
Changes are numbered by the printed parent chain.

Experiments:
[1] = target: T1, Rat TAAR9 (Rattus norvegicus, UniProt Q923Y6); assay: CRE-luciferase reporter assay in Hana3A; format: cell-based; settings: rat TAAR9, ligand 1 mM, Fig. 1B
T1 construct: expressed in transfected cells; host or cells: Hana3A (HEK293-derived)
T1 sequence (Q923Y6 1-338): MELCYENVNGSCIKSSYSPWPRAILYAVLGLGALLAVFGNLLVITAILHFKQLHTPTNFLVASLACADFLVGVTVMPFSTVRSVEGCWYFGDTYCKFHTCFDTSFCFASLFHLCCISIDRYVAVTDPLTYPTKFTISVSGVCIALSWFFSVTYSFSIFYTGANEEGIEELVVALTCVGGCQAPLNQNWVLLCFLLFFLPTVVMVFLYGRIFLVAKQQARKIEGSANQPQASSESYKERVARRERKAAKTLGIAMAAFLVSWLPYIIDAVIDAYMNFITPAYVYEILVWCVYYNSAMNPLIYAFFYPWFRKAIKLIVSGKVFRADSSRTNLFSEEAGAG
Protocol: We examined the response of TAAR9s from rat, human, hamster, and rabbit to the stimulation of 1 mM amines using a well-established cAMP response element (CRE)-driven luciferase reporter assay based on Golf-mediated cAMP signal transduction ([5], [24]). In addition to the four mTAAR9 ligands, we included putrescine, which is also a polyamine and precursor of spermine/spermidine biosynthesis.
(§1) Mammalian TAAR9 plasmids were transfected into Hana3A cells along with a cAMP-dependent luciferase reporter plasmid (CRE-Luc). Transfected cells were incubated with tested ligands, and luciferase activity was quantified with a […] substrate as a reporter for Golf-mediated TAAR activation. Luciferase activity was indicated by the luminescence value and normalized as a fold-increase over the response to the vehicle stimuli (mean ± S.D., n = 3). […] B, Hana3A cells expressing mouse, rat, human, cat, hamster, and rabbit TAAR9 were incubated with either vehicle or tested ligands (1 mM) and assayed for reporter activity. C, concentration-dependent luciferase activity in Hana3A cells expressing mouse, rat, and cat TAAR9 receptors stimulated with cadaverine, spermidine, and spermine.
(§2) The firefly luciferase and renilla luciferase activity was measured with a BioTek microplate reader following manufacturer’s instructions.

[2] = target: T2, mTAAR9 E7.36D (Mus musculus, UniProt Q5QD04, E294D); assay: CRE-luciferase reporter assay, mTAAR9 mutant in Hana3A; format: cell-based; settings: read-out: EC50 (mean ± S.D., n = 3)
T2 construct: expressed in transfected cells; host or cells: Hana3A (HEK293-derived)
T2 sequence (Q5QD04 1-348 E294D): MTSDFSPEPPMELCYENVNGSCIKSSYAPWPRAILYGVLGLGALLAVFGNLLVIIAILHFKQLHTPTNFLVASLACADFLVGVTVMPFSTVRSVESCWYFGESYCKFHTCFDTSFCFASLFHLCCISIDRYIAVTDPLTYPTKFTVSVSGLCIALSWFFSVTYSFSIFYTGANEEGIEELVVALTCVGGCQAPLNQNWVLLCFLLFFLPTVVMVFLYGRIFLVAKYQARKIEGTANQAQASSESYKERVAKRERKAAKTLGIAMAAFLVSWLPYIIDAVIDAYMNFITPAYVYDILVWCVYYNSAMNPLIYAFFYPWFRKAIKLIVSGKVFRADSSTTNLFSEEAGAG

[3] = target: T3, mTAAR8c (Mus musculus, UniProt Q5QD05); assay: CRE-luciferase reporter assay in Hana3A, mouse olfactory TAARs; format: cell-based; settings: ligand 500 μM, Fig. 1D
T3 construct: expressed in transfected cells; host or cells: Hana3A (HEK293-derived)
T3 sequence (Q5QD05 whole entry): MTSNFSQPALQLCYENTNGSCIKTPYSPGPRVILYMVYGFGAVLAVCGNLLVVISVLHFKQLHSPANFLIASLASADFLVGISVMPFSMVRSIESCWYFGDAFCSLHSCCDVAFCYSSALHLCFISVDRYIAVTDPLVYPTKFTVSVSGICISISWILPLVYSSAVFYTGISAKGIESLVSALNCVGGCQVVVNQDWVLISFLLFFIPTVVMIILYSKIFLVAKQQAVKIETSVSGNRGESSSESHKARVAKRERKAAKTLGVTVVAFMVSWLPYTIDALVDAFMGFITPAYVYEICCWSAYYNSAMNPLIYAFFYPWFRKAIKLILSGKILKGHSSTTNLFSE
Protocol: as §1
(§3) We then sought to determine if other mouse olfactory TAARs are activated by the mTAAR9 ligands.
as §2

[4] = target: T4, mTAAR9 W7.40Y (Mus musculus, UniProt Q5QD04, W298Y); assay: CRE-luciferase reporter assay, mTAAR9 mutant in Hana3A; format: cell-based; settings: read-out: EC50 (mean ± S.D., n = 3)
T4 construct: expressed in transfected cells; host or cells: Hana3A (HEK293-derived)
T4 sequence (Q5QD04 whole entry W298Y): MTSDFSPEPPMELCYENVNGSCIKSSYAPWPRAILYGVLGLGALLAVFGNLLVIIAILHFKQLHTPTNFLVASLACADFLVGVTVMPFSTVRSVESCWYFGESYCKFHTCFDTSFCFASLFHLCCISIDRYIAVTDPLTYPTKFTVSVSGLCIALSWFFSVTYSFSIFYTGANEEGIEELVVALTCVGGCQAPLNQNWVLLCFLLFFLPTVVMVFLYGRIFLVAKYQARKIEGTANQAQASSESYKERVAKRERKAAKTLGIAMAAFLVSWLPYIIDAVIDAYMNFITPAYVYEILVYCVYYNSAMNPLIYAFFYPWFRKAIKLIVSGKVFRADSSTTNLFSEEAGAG

[5] = target: T5, WT mTAAR9 (Mus musculus, UniProt Q5QD04); assay: CRE-luciferase reporter assay, wild-type mTAAR9 in Hana3A; format: cell-based; settings: WT mTAAR9, Hana3A, CRE-luciferase; read-out: EC50 (mean ± S.D., n = 3)
T5 construct: Rho-tag (first 20 amino acids of bovine rhodopsin) (N); expressed in transfected cells; host or cells: Hana3A (HEK293-derived)
T5 sequence (Q5QD04 1-348): T2 sequence (Q5QD04 1-348 E294D) with D294E
Protocol: as §1, §2

[6] = target: T6, mTAAR9 W7.40F (Mus musculus, UniProt Q5QD04, W298F); assay: CRE-luciferase reporter assay, mTAAR9 mutant in Hana3A; format: cell-based; settings: read-out: EC50 (mean ± S.D., n = 3)
T6 construct: expressed in transfected cells; host or cells: Hana3A (HEK293-derived)
T6 sequence (Q5QD04 1-348 W298F): T2 sequence (Q5QD04 1-348 E294D) with D294E, W298F

[7] = target: T7, mTAAR9 Y6.51W (Mus musculus, UniProt Q5QD04, Y274W); assay: as above; format: cell-based; settings: read-out: EC50 (mean ± S.D., n = 3)
T7 construct: expressed in transfected cells; host or cells: Hana3A (HEK293-derived)
T7 sequence (Q5QD04 1-348 Y274W): T2 sequence (Q5QD04 1-348 E294D) with Y274W, D294E

[8] = target: T8, mTAAR9 W7.40A (Mus musculus, UniProt Q5QD04, W298A); assay: as above; format: cell-based; settings: read-out: EC50 (mean ± S.D., n = 3)
T8 construct: expressed in transfected cells; host or cells: Hana3A (HEK293-derived)
T8 sequence (Q5QD04 1-348 W298A): T2 sequence (Q5QD04 1-348 E294D) with D294E, W298A

[9] = target: mTAAR5 (Mus musculus, UniProt Q5QD14); settings: mTAAR5, ligand 500 μM, Fig. 1D
mTAAR5, sequence (Q5QD14 whole entry): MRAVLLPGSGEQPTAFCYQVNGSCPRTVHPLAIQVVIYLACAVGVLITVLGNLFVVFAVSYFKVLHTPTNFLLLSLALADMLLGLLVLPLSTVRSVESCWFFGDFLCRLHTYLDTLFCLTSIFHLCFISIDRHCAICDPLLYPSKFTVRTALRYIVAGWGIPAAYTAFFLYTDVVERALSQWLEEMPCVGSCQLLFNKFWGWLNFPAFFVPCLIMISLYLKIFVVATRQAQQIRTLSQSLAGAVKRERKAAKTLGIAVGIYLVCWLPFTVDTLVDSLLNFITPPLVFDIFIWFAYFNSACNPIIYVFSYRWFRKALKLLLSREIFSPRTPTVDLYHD
Protocol: as §1, §3, §2

[10] = target: mTAAR7f (Mus musculus, UniProt Q5QD08); settings: ligand 500 μM, Fig. 1D
mTAAR7f, sequence (Q5QD08 whole entry): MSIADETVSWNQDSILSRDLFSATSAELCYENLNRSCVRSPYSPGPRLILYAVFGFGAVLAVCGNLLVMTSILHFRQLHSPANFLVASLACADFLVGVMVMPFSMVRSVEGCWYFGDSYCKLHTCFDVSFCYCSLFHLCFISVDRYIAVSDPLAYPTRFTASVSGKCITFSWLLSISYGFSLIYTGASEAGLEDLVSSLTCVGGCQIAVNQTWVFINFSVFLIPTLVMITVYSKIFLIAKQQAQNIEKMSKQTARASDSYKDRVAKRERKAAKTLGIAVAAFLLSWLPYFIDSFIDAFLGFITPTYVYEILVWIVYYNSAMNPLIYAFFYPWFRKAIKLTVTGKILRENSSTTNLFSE
Protocol: as §1, §3, §2

NCCCCNCCCN [spermidine]
reporter activity (activation of TAAR9) [1]: maximum responses | EC50 [2]: 142 ± 43 µM | reporter activity [3]: modest activity | EC50 [4]: 2 ± 0.5 µM | EC50 [5]: 43 ± 7 µM | EC50 [6]: 9 ± 7 µM | EC50 [7]: > 1000 µM | EC50 [8]: 68 ± 48 µM

CCN(CC)CC [triethylamine]
EC50 [2]: > 1000 µM | reporter activity [3]: moderate activities | EC50 [5]: 251 ± 82 µM | EC50 [6]: 36 ± 16 µM | EC50 [7]: 355 ± 80 µM | EC50 [8]: > 1000 µM | reporter activity [9]: moderate activities | reporter activity [10]: robust responses
